Data from patent US20230265151A1, “GIP/GLP1 CO-AGONIST COMPOUNDS” (priority 2020, published 2023).
Like-named read-outs stand apart in the source and are kept apart here. *1 amine or outer side, *2 acyl side, *3 side chain or, on linkers, in order; H or OH if unused. Where a SMILES comes first, the peptide text is derived from it. Side-chain parts run from the residue outwards. [ ]: non-standard residue; d: D form. The star is where a group is joined. αMePhe(2-F) = C[C@](N)(Cc1ccccc1F)C(=O)O; γGlu = O=C(O)[C@H](CCC(=O)[*:2])N[*:1]; C14 diacid = O=C(O)CCCCCCCCCCCCC(=O)*; αMeY = C[C@](N)(Cc1ccc(O)cc1)C(=O)O; 4Pal = N[C@@H](Cc1ccncc1)C(=O)O; αMeL = CC(C)C[C@](C)(N)C(=O)O; Orn = NCCC[C@H](N)C(=O)O; AEEA = NCCOCCOCC(=O)O; Aib = CC(C)(N)C(=O)O

Assays:
Type in all cases: cell-based
hGIPR = target: T1, hGIPR (Homo sapiens, UniProt P48546); experiment: Functional cAMP formation (HTRF) in HEK-293 clonal cells expressing hGIPR, 0.1% bovine casein, without or with 1.0% human serum albumin; settings: for EC50: geometric mean, read-out: hGIPR EC50, nM (SEM, n); for Emax: read-out: hGIPR Emax, % ± SEM
T1 construct: expressed in transfected cells
T1 sequence (P48546 22-466): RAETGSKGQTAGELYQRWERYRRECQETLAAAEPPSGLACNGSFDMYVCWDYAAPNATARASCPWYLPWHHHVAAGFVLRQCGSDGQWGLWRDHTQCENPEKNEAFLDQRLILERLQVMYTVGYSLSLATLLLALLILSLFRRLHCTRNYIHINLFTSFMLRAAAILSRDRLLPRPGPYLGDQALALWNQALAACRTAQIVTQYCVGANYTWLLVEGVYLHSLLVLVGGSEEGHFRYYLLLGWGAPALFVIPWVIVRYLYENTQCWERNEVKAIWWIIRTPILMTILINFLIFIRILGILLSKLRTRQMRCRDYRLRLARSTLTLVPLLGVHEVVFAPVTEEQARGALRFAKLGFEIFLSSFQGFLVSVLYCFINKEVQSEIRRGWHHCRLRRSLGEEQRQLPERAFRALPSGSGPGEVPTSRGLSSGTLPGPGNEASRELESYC
Summary of the method: (§1)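 Cells were stimulated with peptide for 30 min at 37° C, then intracellular cAMP was measured by competitive HTRF (665/620 nm ratio) and converted to nM using a cAMP standard curve. Relative EC50 and Emax came from four-parameter logistic fits of percent maximal response against peptide concentration.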

hGCGR = target: T2, hGCGR (Homo sapiens, UniProt P47871); experiment: Functional cAMP formation (HTRF) in HEK-293 clonal cells expressing hGCGR, 0.1% bovine casein, without or with 1.0% human serum albumin; settings: read-out: hGCGR EC50, nM (SEM, n)
T2 construct: expressed in transfected cells
T2 sequence (P47871 26-477): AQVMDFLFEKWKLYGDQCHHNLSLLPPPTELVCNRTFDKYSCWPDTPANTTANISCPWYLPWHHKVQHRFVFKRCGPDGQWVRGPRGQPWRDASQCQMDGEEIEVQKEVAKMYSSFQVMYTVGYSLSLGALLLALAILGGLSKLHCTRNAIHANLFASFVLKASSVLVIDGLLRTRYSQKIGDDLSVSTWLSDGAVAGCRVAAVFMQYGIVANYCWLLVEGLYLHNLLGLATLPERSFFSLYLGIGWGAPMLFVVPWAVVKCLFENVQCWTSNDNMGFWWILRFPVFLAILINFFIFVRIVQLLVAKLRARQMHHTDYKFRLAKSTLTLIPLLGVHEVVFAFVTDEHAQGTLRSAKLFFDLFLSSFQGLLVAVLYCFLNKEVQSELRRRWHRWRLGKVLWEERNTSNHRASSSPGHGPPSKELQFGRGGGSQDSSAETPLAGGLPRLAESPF
Summary of the method: as §1

hGLP-1R = hGLP-1R (Homo sapiens, UniProt P43220); experiment: Functional cAMP formation (HTRF) in HEK-293 clonal cells expressing hGLP-1R, 0.1% bovine casein, without or with 1.0% human serum albumin; set-up: expressed in transfected cells; settings: for EC50: geometric mean, read-out: hGLP-1R EC50, nM (SEM, n); for Emax: read-out: hGLP-1R Emax, % ± SEM
hGLP-1R, sequence (P43220 24-463): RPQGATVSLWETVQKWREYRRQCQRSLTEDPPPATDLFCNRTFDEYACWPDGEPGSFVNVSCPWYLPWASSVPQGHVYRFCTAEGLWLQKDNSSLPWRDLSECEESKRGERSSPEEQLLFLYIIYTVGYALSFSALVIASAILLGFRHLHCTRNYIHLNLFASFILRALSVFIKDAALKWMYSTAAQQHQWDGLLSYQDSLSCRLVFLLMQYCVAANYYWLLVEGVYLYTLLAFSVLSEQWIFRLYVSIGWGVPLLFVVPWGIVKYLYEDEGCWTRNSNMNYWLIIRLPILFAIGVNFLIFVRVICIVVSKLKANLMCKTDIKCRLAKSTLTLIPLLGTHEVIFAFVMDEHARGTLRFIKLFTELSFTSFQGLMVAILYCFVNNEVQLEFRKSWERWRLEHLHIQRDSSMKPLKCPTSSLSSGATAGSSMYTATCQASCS
Summary of the method: as §1

[1] = 0.1% bovine casein and 1.0% human serum albumin, 37° C.
[2] = HEK293, 0.1% bovine casein and 1.0% human serum albumin, 37° C., percent of maximal response to GIP(1-42)NH2
[3] = HEK293, percent of maximal response to GIP(1-42)NH2, 37° C., 0.1% bovine casein, arithmetic mean
[4] = cAMP, incubated at 37° C., 0.1% bovine casein (no human serum albumin)
[5] = 0.1% bovine casein and 1.0% human serum albumin, 37° C., geometric mean
[6] = cAMP, incubated at 37° C., 0.1% bovine casein (no human serum albumin), geometric mean
[7] = HEK293, percent of maximal response to GLP-1(7-36)NH2, 37° C., 0.1% bovine casein, arithmetic mean
[8] = cAMP, 37° C., 0.1% bovine casein (no human serum albumin)

| EC50 (hGIPR; [4]) | EC50 (hGLP-1R; [1]) | EC50 (hGLP-1R; [4]) | Compound | EC50 (hGIPR; [1]) | Emax (hGIPR; [2]) | Emax (hGIPR; [3]) | EC50 (hGCGR; [5]) | EC50 (hGCGR; [6]) | Emax (hGLP-1R; [7]) | Emax (hGLP-1R; HEK293, 0.1% bovine casein and 1.0% human serum albumin, 37° C., percent of maximal response to GLP-1(7-36)NH2) | Emax (hGIPR; HEK293, cAMP, 37° C., 0.1% bovine casein and 1.0% human serum albumin, percent of maximal response to GIP(1-42)NH2) | Emax (hGIPR; HEK293, cAMP, 37° C., 0.1% bovine casein, percent of maximal response to GIP(1-42)NH2, arithmetic mean) | EC50 (hGIPR; [8]) | EC50 (hGCGR; cAMP, 37° C., 0.1% bovine casein (no human serum albumin), geometric mean) | EC50 (hGCGR; cAMP, 37° C., 0.1% bovine casein and 1.0% human serum albumin, geometric mean (SEM, n)) | Emax (hGLP-1R; HEK293, cAMP, 37° C., 0.1% bovine casein and 1.0% human serum albumin, percent of maximal response to GLP-1(7-36)NH2) | Emax (hGLP-1R; HEK293, cAMP, 37° C., 0.1% bovine casein, percent of maximal response to GLP-1(7-36)NH2, arithmetic mean) | EC50 (hGLP-1R; [8]) |
| --- | --- | --- | --- | --- | --- | --- | --- | --- | --- | --- | --- | --- | --- | --- | --- | --- | --- | --- |
| 0.0309 nM | 34.6 nM | 0.912 nM | CC[C@H](C)[C@H](NC(=O)[C@H](CC(C)C)NC(=O)[C@](C)(Cc1ccc(O)cc1)NC(=O)[C@@H](CCC(=O)O)NC(=O)[C@@H](NC(=O)[C@H](Cc1ccccc1)NC(=O)[C@H](CCC(=O)O)NC(=O)C(C)(C)NC(=O)[C@H](CCC(N)=O)NC(=O)[C@H](C)NC(=O)[C@H](CCCCNC(=O)COCCOCCNC(=O)COCCOCCNC(=O)CC[C@H](NC(=O)CCCCCCCCCCCCC(=O)O)C(=O)O)NC(=O)[C@H](CCCN)NC(=O)[C@H](CC(=O)O)NC(=O)[C@H](CC(C)C)NC(=O)[C@](C)(CC(C)C)NC(=O)[C@@H](NC(=O)[C@H](CO)NC(=O)[C@H](Cc1ccncc1)NC(=O)[C@H](CC(=O)O)NC(=O)[C@H](CO)NC(=O)[C@@H](NC(=O)[C@](C)(Cc1ccccc1F)NC(=O)[C@@H](NC(=O)CNC(=O)[C@H](CCC(=O)O)NC(=O)C(C)(C)NC(=O)[C@@H](N)Cc1ccc(O)cc1)[C@@H](C)O)[C@@H](C)O)[C@@H](C)CC)[C@@H](C)CC)C(=O)N[C@@H](CCC(=O)O)C(=O)NCC(=O)NCC(=O)N[C@@H](CCCCNC(=O)COCCOCCNC(=O)COCCOCCNC(=O)CC[C@H](NC(=O)CCCCCCCCCCCCC(=O)O)C(=O)O)C(=O)N[C@@H](CO)C(=O)N[C@@H](CO)C(=O)NCC(=O)N[C@@H](CCCN)C(=O)N1CCC[C@H]1C(=O)N1CCC[C@H]1C(=O)N1CCC[C@H]1C(=O)N[C@@H](CCCN)C(N)=O [Example 155] (H-Y[Aib]EGT[αMePhe(2-F)]TSD[4Pal]SI[αMeL]LD[Orn]K([AEEA-AEEA-γGlu-C14 diacid])AQ[Aib]EFI[dE][αMeY]LIEGGK([AEEA-AEEA-γGlu-C14 diacid])SSG[Orn]PPP[Orn]-NH2; N-terminus assumed) | 1.25 nM | 96.5 ± 1.04% | 96.6 ± 7.55% | > 9950 nM | > 9950 nM | 99 ± 5.16% |  |  |  |  |  |  |  |  |  |
|  |  |  | CC[C@H](C)[C@H](NC(=O)[C@H](CC(C)C)NC(=O)[C@](C)(Cc1ccc(O)cc1)NC(=O)[C@@H](CCC(=O)O)NC(=O)[C@@H](NC(=O)[C@H](Cc1ccccc1)NC(=O)[C@H](CCC(=O)O)NC(=O)C(C)(C)NC(=O)[C@H](CCC(N)=O)NC(=O)[C@H](C)NC(=O)[C@H](CCCCNC(=O)COCCOCCNC(=O)COCCOCCNC(=O)CC[C@H](NC(=O)CCCCCCCCCCCCC(=O)O)C(=O)O)NC(=O)[C@H](CCCN)NC(=O)[C@H](CC(=O)O)NC(=O)[C@H](CC(C)C)NC(=O)[C@](C)(CC(C)C)NC(=O)[C@@H](NC(=O)[C@H](CO)NC(=O)C1(NC(=O)[C@H](CC(=O)O)NC(=O)[C@H](CO)NC(=O)[C@@H](NC(=O)[C@](C)(Cc2ccccc2F)NC(=O)[C@@H](NC(=O)CNC(=O)[C@H](CCC(=O)O)NC(=O)C(C)(C)NC(=O)[C@@H](N)Cc2ccc(O)cc2)[C@@H](C)O)[C@@H](C)O)CCC1)[C@@H](C)CC)[C@@H](C)CC)C(=O)N[C@@H](CCC(=O)O)C(=O)NCC(=O)NCC(=O)N[C@@H](CCCCNC(=O)COCCOCCNC(=O)COCCOCCNC(=O)CC[C@H](NC(=O)CCCCCCCCCCCCC(=O)O)C(=O)O)C(=O)N[C@@H](CO)C(=O)N[C@@H](CO)C(=O)NCC(=O)N[C@@H](C)C(=O)N1CCC[C@H]1C(=O)N1CCC[C@H]1C(=O)N1CCC[C@H]1C(=O)N[C@@H](CO)C(N)=O [Example 95] | 4.68 nM | 86.9% | 97.3% | > 9950 nM | > 9950 nM | 86.9% | 84% |  |  |  |  |  |  |  |  |
|  |  |  | CC[C@H](C)[C@H](NC(=O)[C@H](CC(C)C)NC(=O)[C@](C)(Cc1ccc(O)cc1)NC(=O)[C@@H](CCC(=O)O)NC(=O)[C@@H](NC(=O)[C@H](Cc1ccccc1)NC(=O)[C@H](CCCCNC(=O)COCCOCCNC(=O)COCCOCCNC(=O)CCCCCCCCCCCCC(=O)O)NC(=O)C(C)(C)NC(=O)[C@H](CCC(N)=O)NC(=O)[C@H](C)NC(=O)[C@H](CCCCNC(=O)COCCOCCNC(=O)COCCOCCNC(=O)CCCCCCCCCCCCC(=O)O)NC(=O)[C@H](CCCN)NC(=O)[C@H](CC(=O)O)NC(=O)[C@H](CC(C)C)NC(=O)[C@](C)(CC(C)C)NC(=O)[C@@H](NC(=O)C(C)(C)NC(=O)[C@H](Cc1ccc(O)cc1)NC(=O)[C@H](CC(=O)O)NC(=O)[C@H](CO)NC(=O)[C@@H](NC(=O)[C@](C)(Cc1ccccc1F)NC(=O)[C@@H](NC(=O)CNC(=O)[C@H](CCC(=O)O)NC(=O)C(C)(C)NC(=O)[C@@H](N)Cc1ccc(O)cc1)[C@@H](C)O)[C@@H](C)O)[C@@H](C)CC)[C@@H](C)CC)C(=O)N[C@@H](CCC(=O)O)C(=O)NCC(=O)NCC(=O)N1CCC[C@H]1C(=O)N[C@@H](CO)C(=O)N[C@@H](CO)C(=O)NCC(=O)N[C@@H](C)C(=O)N1CCC[C@H]1C(=O)N1CCC[C@H]1C(=O)N1CCC[C@H]1C(=O)N[C@@H](CO)C(N)=O [Example 385] |  |  |  |  |  |  |  | 83.5% | 95.2% | 0.0154 nM | > 9950 nM | > 9950 nM | 112% | 100% | 0.189 nM |
